What is called EC50 is the concentration at which the effect is half-maximal.

This is an account of results in ChEMBL document CHEMBL5042484, “Design of SARS-CoV-2 PLpro Inhibitors for COVID-19 Antiviral Therapy Leveraging Binding Cooperativity” (J Med Chem, 2022).

The subject of the assay is SARS-CoV-2. Put plainly: Antiviral activity against SARS-COV-2 USA/WA1/2020 in human A549 cells overexpressing ACE2 receptor assessed as reduction in viral replication at MOI of 0.01 pretreated for 1 hr followed by viral infection and further incubated for 1 hr measured after 48 hrs by RT-qPCR analysis. Particulars: Severe acute respiratory syndrome coronavirus 2, USA/WA1/2020, A549. In kind it is functional, organism-based. A general note: In qPCR the cycle at which signal appears reflects the starting amount.
Turning to `Cc1ccc(NC2CNC2)cc1C(=O)N[C@H](C)c1cccc(-c2ccc(CN3CCCC3)s2)c1`, the concentration for a half-maximal effect (EC50) amounted to 1200 nM.
The value for `Cc1ccc(N)cc1C(=O)N[C@H](C)c1cccc2ccccc12` was more than 20000 nM.
The value for `Cc1ccc(NC2CNC2)cc1C(=O)N[C@H](C)c1cccc(-c2ccc(CNC3CCCC3)s2)c1` was 1400 nM.
